Drawing on ChEMBL document CHEMBL1129217, “Synthesis and pharmacology of the 1,2-dimethylheptyl-8-THC isomers: exceptionally potent cannabinoids” (Bioorg Med Chem Lett, 1997), this text covers Ki and ED50 for seven molecules.

In experiment [1] the target is Cannabinoid receptor (Homo sapiens, UniProt P34972+P21554). As to the kind of experiment: The affinity of compound for the cannabinoid brain receptor was determined by measuring its ability to displace [3H]CP-55940 from its binding site in a membrane preparation. Type of experiment: cell membranes.
In experiment [2] the test system is Mus musculus. Description: The compound was evaluated in vivo for antinociception (TF) activity in a mouse model. Type of experiment: functional.
The subject of experiment [3] is Mus musculus. As to the kind of experiment: The compound was evaluated in vivo for hypothermia(as rectal temperature) in a mouse model. Format: functional.
Experiment [4] relates to Mus musculus. As to the kind of experiment: The compound was evaluated in vivo for spontaneous activity(SA) in a mouse model. Format: functional.

For `CC1=CC[C@H]2[C@H](C1)c1c(O)cc(C(C)C(C)C3CCCC3)cc1OC2(C)C` (stereo partly specified), the Ki in experiment [1] stood at 0.81 nM. In addition, the ED50 in experiment [2] was 0.18 µmol/kg; in experiment [3], 0.19 µmol/kg; in experiment [4], 0.12 µmol/kg.

On to `CCCCCCC(C)(C)c1cc(O)c2c(c1)OC(C)(C)[C@@H]1CC=C(C)C[C@@H]21`, for which, in experiment [1], the Ki came to 0.77 nM. The ED50 in experiment [2] came to 0.14 µmol/kg; in experiment [3], 0.15 µmol/kg; in experiment [4], 0.27 µmol/kg.

For the molecule `CC1=CC[C@H]2[C@@H](C1)c1c(O)cc(C(C)C(C)C3CCCC3)cc1OC2(C)C` (stereo partly specified), in experiment [1], the Ki was determined as 0.46 nM. In addition, the ED50 in experiment [2] is 0.03 µmol/kg; in experiment [3], 0.07 µmol/kg; in experiment [4], 0.03 µmol/kg.

Take `CCCCCc1cc(O)c2c(c1)OC(C)(C)[C@@H]1CC=C(C)C[C@@H]21` [DELTA-8-TETRAHYDROCANNABINOL]: the ED50 in experiment [2] turned out to be 4.5 µmol/kg; in experiment [3] it was 4.8 µmol/kg; in experiment [4] it was 2.9 µmol/kg.

Consider `CCCCCCC(C)(C)c1cc(O)c2c(c1)OC(C)(C)[C@@H]1CC=C(CO)C[C@@H]21`, for which the ED50 in experiment [2] stood at 0.02 µmol/kg; in experiment [3], 0.05 µmol/kg; in experiment [4] it was 0.01 µmol/kg.

`CC1=CC[C@@H]2[C@@H](C1)c1c(O)cc(C(C)C(C)C3CCCC3)cc1OC2(C)C` (stereo partly specified) gave a Ki in experiment [1] of 0.84 nM. In addition, the ED50 came to 0.42 µmol/kg in experiment [2], 0.63 µmol/kg in experiment [3] and 0.45 µmol/kg in experiment [4].

With `CC1=CC[C@@H]2[C@H](C1)c1c(O)cc(C(C)C(C)C3CCCC3)cc1OC2(C)C` (stereo partly specified), in experiment [1], the Ki was determined as 0.6 nM. The ED50 in experiment [2] is 0.1 µmol/kg; in experiment [3], 0.07 µmol/kg; in experiment [4], 0.04 µmol/kg.
